Among the data in patent US9242973B2, “Chromane compounds” (CoMentis, Inc., priority 2012, dated 2016) are IC50 values, retold here.

The first data set deals with BACE1 (Homo sapiens (Human), UniProt P56817). Kind of data set: Test Example 1: BACE1 inhibition by FRET (MCA substrate); IC50 and Ki. Particulars: read-out: Test Example 1 IC50.
BACE1, sequence (P56817 75-416): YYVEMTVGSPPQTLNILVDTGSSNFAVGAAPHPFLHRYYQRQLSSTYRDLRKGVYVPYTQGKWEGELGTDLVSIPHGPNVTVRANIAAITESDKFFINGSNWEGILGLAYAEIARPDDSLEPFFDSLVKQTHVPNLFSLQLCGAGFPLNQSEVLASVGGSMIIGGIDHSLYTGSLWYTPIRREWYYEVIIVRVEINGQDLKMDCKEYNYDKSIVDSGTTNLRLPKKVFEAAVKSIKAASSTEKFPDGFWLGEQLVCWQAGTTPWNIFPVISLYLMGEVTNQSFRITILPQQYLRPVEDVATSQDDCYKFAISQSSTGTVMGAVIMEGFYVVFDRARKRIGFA
Take `CC1(C)Oc2ccc(NC(=O)c3ccc(F)cn3)cc2C2(COC(N)=N2)C12COC2` (centres unmarked) [Example 28]: the half-maximal inhibitory concentration (IC50) is 154 nM.

Consider `CC1(C)Oc2ccc(NC(=O)c3ncc(Cl)cc3F)cc2C2(COC(N)=N2)C12COC2` (centres unmarked) [Example 30], for which the concentration for half-maximal inhibition (IC50) amounted to 97.5 nM.

Still in this data set, the particulars now being: read-out: Test Example 1 IC50; FRET, MCA substrate 3 μM, BACE1 65 nM, pH 4.4.
As for `CCCC1Oc2ccc(Br)cc2C2(COC(N)=N2)C12COC2` (single isomer, unassigned) [RP 11a], the IC50 is 15600 nM.

Take `CCCC1Oc2ccc(Br)cc2C2(COC(N)=N2)C12COC2` (single isomer, unassigned) [RP 11b]: the IC50 stood at 17400 nM.

Turning to `NC1=NC2(CO1)c1cc(NC(=O)c3ccc(Cl)cn3)ccc1OCC21CC1` (centres unmarked) [RP 32], the IC50 is 418 nM.

The subject of the next data set is Aβ production in SK-N-BE(2) neuroblastoma cells. Kind of data set: Test Example 3: Aβ production inhibition in cell (Aβ40 ELISA, SK-N-BE(2)). The conditions noted are these: Homo sapiens, SKNBE2, 6 h, read-out: Test Example 3 IC50. On the technique in general: ELISA stands for enzyme-linked immunosorbent assay.
As for `CC1(C)Oc2ccc(NC(=O)c3ccc(F)cn3)cc2C2(COC(N)=N2)C12COC2` (centres unmarked) [Example 28], the 50% inhibitory concentration (IC50) amounted to 19 nM.

As for `CC1(C)Oc2ccc(NC(=O)c3ncc(Cl)cc3F)cc2C2(COC(N)=N2)C12COC2` (centres unmarked) [Example 30], the IC50 was determined as 2.3 nM.

The same data set, now with this note: Homo sapiens, SKNBE2, 6 h, read-out: Test Example 3 IC50, SK-N-BE(2) cells, 6 hours, Aβ40 ELISA normalized by viability.
As to `CC1(C)Oc2ccc(-c3ccc4[nH]ccc4c3)cc2C2(COC(N)=N2)C12COC2` (centres unmarked) [RP 174, 6′-(1H-indol-5-yl)-2′,2′-dimethyldispiro[1,3-oxazole-4,4′-chromene-3′,3″-oxetan]-2-amine], the IC50 turned out to be 3400 nM.

Regarding `CC1(C)Oc2ccc(-c3cccc4[nH]ncc34)cc2C2(COC(N)=N2)C12COC2` (centres unmarked) [RP 176], the IC50 is 850 nM.

For the molecule `CC1(C)Oc2ccc(-c3ccc4[nH]ncc4c3)cc2C2(COC(N)=N2)C12COC2` (centres unmarked) [RP 177], the IC50 was found to be 1500 nM.

In the case of `CC1(C)Oc2ccc(-c3ccc4nonc4c3)cc2C2(COC(N)=N2)C12COC2` (centres unmarked) [RP 178], the IC50 came out at 810 nM.

Consider `CC1(C)Oc2ccc(-c3cccc4cccnc34)cc2C2(COC(N)=N2)C12COC2` (centres unmarked) [RP 179], for which the IC50 amounted to 1400 nM.

Consider `CC1(C)Oc2ccc(-c3cccc4cnccc34)cc2C2(COC(N)=N2)C12COC2` (centres unmarked) [RP 180], for which the 50% inhibitory concentration (IC50) was 490 nM.

Turning to `COC/C=C/c1ccc2c(c1)C1(COC(N)=N1)C1(COC1)C(C)(C)O2` (centres unmarked) [RP 181], the IC50 came to 820 nM.

Regarding `CC1(C)Oc2ccc(-c3ccc4c(c3)OCO4)cc2C2(COC(N)=N2)C12COC2` (centres unmarked) [RP 182], the concentration for half-maximal inhibition (IC50) amounted to 2500 nM.

As for `CC1(C)Oc2ccc(-c3c(F)ccc(F)c3F)cc2C2(COC(N)=N2)C12COC2` (centres unmarked) [RP 185], the IC50 came to 760 nM.

Take `NC1=NC2(CO1)c1cc(NC(=O)c3ncc(Br)cn3)ccc1OCC21CC1` (centres unmarked) [RP 189]: the half-maximal inhibitory concentration (IC50) was 43 nM.

On to `COc1cnc(C(=O)Nc2ccc3c(c2)C2(COC(N)=N2)C2(CC2)CO3)cn1` (centres unmarked) [RP 193], for which the half-inhibitory concentration (IC50) was 81 nM.

With `N#Cc1ccc(C(=O)Nc2ccc3c(c2)C2(COC(N)=N2)C2(CC2)CO3)nc1` (centres unmarked) [RP 196], the IC50 was 53 nM.

In the case of `NC1=NC2(c3cc(-c4cncnc4)ccc3OCC23CC3)c2cccc(F)c21` (centres unmarked) [RP 199], the IC50 is 240 nM.

For `NC1=NC2(CO1)c1cc(-c3cncnc3)ccc1OC(Cc1ccccc1)C21COC1` (centres unmarked) [RP 200], the IC50 was found to be 26 nM.

Take `CC#Cc1cncc(-c2ccc3c(c2)C2(COC(N)=N2)C2(COC2)C(Cc2ccccc2)O3)c1` (centres unmarked) [RP 201]: the IC50 is 8.7 nM.

With `NC1=NC2(CO1)c1cc(-c3cncnc3)ccc1OC(CC1CC1)C21COC1` (centres unmarked) [RP 204], the IC50 amounted to 240 nM.

Turning to `CC#Cc1cncc(-c2ccc3c(c2)C2(COC(N)=N2)C2(COC2)C(CC2CC2)O3)c1` (centres unmarked) [RP 205], the 50% inhibitory concentration (IC50) is 22 nM.

Regarding `NC1=NC2(c3cc(-c4cncnc4)ccc3OCC23CC3)C(F)(F)CO1` (centres unmarked) [RP 206], the 50% inhibitory concentration (IC50) was above 30000 nM.

Turning to `NC1=NC2(CO1)c1cc(-c3cncnc3)ccc1OCC21CC(F)(F)C1` (centres unmarked) [RP 208], the half-maximal inhibitory concentration (IC50) was found to be 6100 nM.

On to `NC1=NC2(CO1)c1cc(-c3cccnc3)ccc1OC1(CCC1)C21COC1` (centres unmarked) [RP 209], for which the IC50 came out at 830 nM.

`NC1=NC2(COC1)c1cc(-c3cncnc3)ccc1OCC21CC1` (centres unmarked) [RP 215, 6′-(pyrimidin-5-yl)-6″H-dispiro[cyclopropane-1,3′-chromene-4′,3″-[1,4]oxazin]-5″-amine]: the IC50 amounted to 240 nM.

The target of the next data set is hERG potassium channel (Homo sapiens (Human), UniProt Q12809). Kind of data set: Test Example 5: hERG inhibition, automated patch clamp in hERG-expressing CHO cells. Particulars: read-out: Test Example 5 hERG IC50, QPatch, room temperature. (In general: The hERG channel carries a current that helps repolarise heart muscle cells.)
hERG potassium channel, sequence (Q12809 whole entry): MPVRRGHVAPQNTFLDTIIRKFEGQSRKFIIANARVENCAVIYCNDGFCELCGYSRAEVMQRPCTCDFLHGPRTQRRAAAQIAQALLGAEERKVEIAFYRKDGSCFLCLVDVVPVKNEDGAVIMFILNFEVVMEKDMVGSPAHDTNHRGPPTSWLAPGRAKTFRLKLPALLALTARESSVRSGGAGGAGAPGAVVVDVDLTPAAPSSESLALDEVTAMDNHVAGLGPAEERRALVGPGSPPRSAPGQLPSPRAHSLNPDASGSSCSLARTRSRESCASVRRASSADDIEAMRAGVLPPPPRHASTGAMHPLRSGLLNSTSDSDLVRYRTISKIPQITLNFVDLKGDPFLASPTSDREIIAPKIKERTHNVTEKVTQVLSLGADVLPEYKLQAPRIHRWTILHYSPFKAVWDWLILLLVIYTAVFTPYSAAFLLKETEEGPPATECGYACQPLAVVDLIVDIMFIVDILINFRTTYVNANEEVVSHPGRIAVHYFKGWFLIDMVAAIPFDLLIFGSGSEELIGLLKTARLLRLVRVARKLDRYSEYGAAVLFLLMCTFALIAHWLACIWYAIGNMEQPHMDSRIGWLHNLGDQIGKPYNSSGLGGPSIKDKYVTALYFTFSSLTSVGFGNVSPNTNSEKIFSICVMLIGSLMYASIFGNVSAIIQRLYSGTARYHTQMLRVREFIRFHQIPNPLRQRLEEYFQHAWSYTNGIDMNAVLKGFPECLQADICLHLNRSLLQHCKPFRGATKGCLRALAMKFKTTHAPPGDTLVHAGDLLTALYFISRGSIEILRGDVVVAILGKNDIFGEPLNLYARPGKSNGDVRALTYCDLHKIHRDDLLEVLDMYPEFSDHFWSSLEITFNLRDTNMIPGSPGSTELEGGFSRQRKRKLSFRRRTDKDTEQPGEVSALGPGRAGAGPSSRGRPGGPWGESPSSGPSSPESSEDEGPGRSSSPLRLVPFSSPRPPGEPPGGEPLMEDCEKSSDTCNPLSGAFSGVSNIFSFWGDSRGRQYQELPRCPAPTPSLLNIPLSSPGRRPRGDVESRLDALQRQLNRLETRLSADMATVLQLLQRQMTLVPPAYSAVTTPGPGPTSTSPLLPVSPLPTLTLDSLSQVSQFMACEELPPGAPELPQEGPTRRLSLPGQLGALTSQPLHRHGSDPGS
Consider `CC1(C)Oc2ccc(NC(=O)c3ccc(C#N)cn3)cc2C2(COC(N)=N2)C12COC2` (centres unmarked) [Example 197], for which the half-inhibitory concentration (IC50) is above 10000 nM.

By IC50 is commonly meant the midpoint of a concentration-inhibition curve.
